Here are results for 18 molecules from US20040052828A1, “Consumable product including consumable component and alpha-keto enamine derivatives” (priority 2000, published 2004).

Common to all, as to assay type: in vivo, human
For assay [1], the system named is trained panelists. In words: Cooling threshold in water, triangle test by trained panelists. The note with it: determined in water. The method, then:
Prior to sensory analysis, the purity of the synthetic taste compounds was checked by GC/MS. Determination of the cooling, as well as the aroma threshold, of the compounds was performed by trained panelists. Nasal odor thresholds (Guth, H.; Grosch, W. J. Am. Oil Chem. Soc. 1993, 70, 513-518), as well as cooling thresholds, were determined by triangle tests using tap water as the solvent. The samples were presented in order of increasing concentrations and the threshold values evaluated in three separate sessions were averaged. The values between individuals and separate sessions differed by not more than one dilution step.

The nature of assay [2]: Tasting of cooling compounds in Vittel mineral water. The method, then:
Solutions of 10%-menthol, 10% 5-MPC and 10% MPF, respectively, in ethanol were diluted with Vittel™ mineral water. The solutions were tasted and compared with pure Vittel™ water.

Assay [3] concerns mouth cavity. In words: Evaluation of cooling substances in orange juice. The method, then:
Several cooling substances were evaluated in orange juice.

Assay [4] is described as follows: Cooling threshold in milk chocolate. The note with it: for Cooling effect [mg/100 g chocolate]: cooling threshold in milk chocolate. The text has this: In an additional experiment, the cooling thresholds of 3-MPC, 5-MPC, MPF, 2(5H)-MPF and 2(5H)-DMPF have been determined in chocolate. […] The ratio for compounds of the invention is typically less than that of menthol, preferably less than 9, more preferably less than about 3. In other embodiments, the cooling threshold to odor threshold ratio is less than about 1 or less than about 0.1.

Assay [5] concerns skin surface on the inside of the right forearm. In words: Topical testing of cooling intensity on the forearm. The note with it: scale 0 (no effect) to 5 (very strong). How it is done:
Topical thresholds of cooling compounds 5-MPF, 2(5H)-DMPF, 2(5H)-MPF and MPF were determined as follows: An aliquot (0.5 mL) of a solution, […], was applied to a circular area (10 cm^2) of the skin surface on the inside of the right forearm, midway between the wrist and the elbow, and were rubbed for 1 min. In parallel, an aliquot (0.5 mL) of pure tap water was applied as the blank onto the skin of the left forearm. After 1 min, the skin was dried. A panel of 10 subjects (male and female) were asked to rank the cooling intensity on a scale from 0 (no effect) to 5 (very strong). The values evaluated in three different sessions at two days were averaged. The values between individuals and separate sessions differed not more than 2 scores.

Assay [6] deals with mouth. In words: Taste testing of sugar confectionery (candies). How it is done: Sugar (100 g) was heated together with water (15 g) in a beaker on a hot plate. After the mixture became a clear solution, the sugar syrup was heated further until it became viscous due to the evaporation of water. Then 5-MPC (20 mg) and MPF (100 mg), respectively, were added. The viscous liquid was then poured into molds (3 g each) and cooled down to room temperature. The candies, which had been formed in the molds, were demolded and used for taste testing.

Assay [7] can be described thus: Application in ice cream. The note with it: 20 mg/kg in ice cream. The method, then:
Full-fat cream (250 g), milk (250 ml) and sugar (100 g) were mixed and stirred until the sugar was dissolved. Then the mixture was poured into an ice cream machine (Il Gelataio Super, Simac Inc., Gessate, Italy) and frozen within 30 minutes while stirring. In the same way, ice cream was prepared with 5-MPC (20 mg/kg). […] The cool refreshing impression of this ice cream persisted much longer than with the unflavored reference compound.

In assay [1], `CC1CCC(C(C)C)C(O)C1` (single isomer, unassigned; (-)) [(−)-Menthol, reference compound] yielded a Cooling threshold of 0.9 to 1.9 mg/kg. In addition, the “Flavor: cooling effect” value in assay [2] (10 mg/L in Vittel mineral water) is “Pronounced cooling effect, strong”. Moreover, the cooling effect result in assay [3] (20 mg/L in orange juice) is “strong cooling effect”.

As to `CC1=C(N2CCCC2)C(=O)OC1C` (stereo not drawn) [2(5H)-DMPF, 4,5-Dimethyl-3-(1-pyrrolidinyl)-2(5H)-furanone], the Cooling threshold in assay [1] is 2.0 to 4.0 mg/kg. Also, in assay [4], the “Cooling effect [mg/100 g chocolate]” value was 5.0-7.5 mg/100 g chocolate. In addition, the Cooling intensity in assay [5] (0.00625 % in tap water) stood at 0; in assay [5] (0.0125 % in tap water), 1; in assay [5] (0.025 % in tap water), 3; in assay [5] (0.05 % in tap water) it was 5; in assay [5] (0.1 % in tap water) it was 5; in assay [5] (0.2 % in tap water), 5. Also, the Cooling intensity in assay [5] (0.5 % in tap water) and in assay [5] (1.0 % in tap water) was 5 throughout.

For `CC1=C(N2CCCC2)C(=O)OC1` [2(5H)-MPF, 4-Methyl-3-(1-pyrrolidinyl)-2(5H)-furanone], the Cooling threshold in assay [1] lay within 0.02 to 0.06 mg/kg. In addition, in assay [4], the “Cooling effect [mg/100 g chocolate]” value was 0.25-0.5 mg/100 g chocolate. The Cooling intensity was determined as 0 in assay [5] (0.00020 % in tap water); 1 in assay [5] (0.00039 % in tap water); 2 in assay [5] (0.00078 % in tap water); 3 in assay [5] (0.00156 % in tap water); 5 in assay [5] (0.00313 % in tap water); 5 in assay [5] (0.00625 % in tap water).

`CC1=C(N2CCCC2)C(=O)CC1C` (stereo not drawn) [3,4-DMPC, 3,4-Dimethyl-2-(1-pyrrolidinyl)-2-cyclopenten-1-one] gave a Cooling threshold in assay [1] of 51 to 86 mg/kg.

Regarding `CC1=C(N2CCCC2)C(=O)C(C)C1` (stereo not drawn) [3,5-DMPC, 3,5-Dimethyl-2-(1-pyrrolidinyl)-2-cyclopenten-1-one], the Cooling threshold in assay [1] fell in the range of 33 to 54 mg/kg.

In the case of `CC1=C(N2CCCC2)C(=O)CC1` [3-MPC, 3-Methyl-2-(1-pyrrolidinyl)-2-cyclopenten-1-one], the Cooling threshold in assay [1] fell in the range of 29 to 44 mg/kg. Also, the “Cooling effect [mg/100 g chocolate]” value in assay [4] was 38-63 mg/100 g chocolate.

The molecule `CC1=C(N2CCCC2)C(=O)CCC1` [3-MPCH, 3-Methyl-2-(1-pyrrolidinyl)-2-cyclohexen-1-one] had a Cooling threshold in assay [1] of 90 to 150 mg/kg.

In assay [1], `CC1=C(N2CCCCC2)C(=O)CC1` [3-MPipC, 3-Methyl-2-(1-piperidinyl)-2-cyclopenten-1-one] displayed a Cooling threshold of 60 to 100 mg/kg.

The molecule `CC1=C(N2CCCC2C(=O)O)C(=O)CC1` (stereo not drawn) [3-MProC, 3-Methyl-2-(2-carboxy-1-pyrrolidinyl)-2-cyclopentene-1-one] registered a Cooling threshold in assay [1] of 490 to 735 mg/kg.

Regarding `CC1C=C(N2CCCC2)C(=O)C1C` (stereo not drawn) [4,5-DMPC, 4,5-Dimethyl-2-(1-pyrrolidinyl)-2-cyclopenten-1-one], the Cooling threshold in assay [1] lay in the range of 68 to 113 mg/kg.

With `CCC1CC=C(N2CCCC2)C1=O` (stereo not drawn) [5-EPC, 5-Ethyl-2-(1-pyrrolidinyl)-2-cyclopenten-1-one], the Cooling threshold in assay [1] lay in the range of 27 to 43 mg/kg.

With `COC(=O)C1CCCN1C1=CCC(C)C1=O` (stereo not drawn) [5-MMeproC, 5-Methyl-2-(2-methoxycarbonyl-1-pyrrolidinyl)-2-cyclopentene-1-one], the Cooling threshold in assay [1] lay within 112 to 188 mg/kg.

Consider `CC1CC=C(N2CCCC2)C1=O` (stereo not drawn) [5-MPC, 5-Methyl-2-(1-pyrrolidinyl)-2-cyclopenten-1-one], for which, in assay [1], the Cooling threshold lay within 4.5 to 9 mg/kg. Besides, the “Cooling effect [mg/100 g chocolate]” value in assay [4] is reported as 2.3-3.7 mg/100 g chocolate. Besides, in assay [4] (in chocolate, compared with 2(5H)-MPF), the “fold higher cooling threshold than 2(5H)-MPF” value was determined as 8 fold. The cooling effect result is given as “strong cooling effect” in assay [3] (200 mg/L in orange juice) and “pronounced long lasting cooling effect” in assay [7]. For the same molecule, the “cooling effect in the mouth” value in assay [6] (20 mg added to syrup of 100 g sugar) is “pronounced cooling effect”. The Cooling intensity in assay [5] (0.00020 % in tap water), in assay [5] (0.00039 % in tap water), in assay [5] (0.00078 % in tap water), in assay [5] (0.00156 % in tap water), in assay [5] (0.00313 % in tap water) and in assay [5] (0.00625 % in tap water) was 0 throughout. Moreover, the Cooling intensity in assay [5] (0.0125 % in tap water) is listed as 0; in assay [5] (0.025 % in tap water) it was 0; in assay [5] (0.05 % in tap water), 0; in assay [5] (0.1 % in tap water) it was 0; in assay [5] (0.2 % in tap water), 1; in assay [5] (0.5 % in tap water) it was 3. In assay [5] (1.0 % in tap water), this molecule showed a Cooling intensity of 5.

`CCN(CC)C1=CCC(C)C1=O` (stereo not drawn) [5-MdeaC, 5-Methyl-2-diethylamino-2-cyclopenten-1-one] showed a Cooling threshold in assay [1] of 12 to 20 mg/kg.

In assay [1], `CC1CC=C(N2CCCCC2)C1=O` (stereo not drawn) [5-MpipC, 5-Methyl-2-(1-piperidinyl)-2-cyclopenten-1-one] displayed a Cooling threshold of 16 to 24 mg/kg.

Consider `CC1CCC=C(N2CCCC2)C1=O` (stereo not drawn) [6-MPCH, 6-Methyl-2-(1-pyrrolidinyl)-2-cyclohexen-1-one], for which the Cooling threshold in assay [1] lay within 27 to 45 mg/kg.

In turn, `CC1=C(N2CCCC2)C(=O)C(C)O1` (stereo not drawn) [DMPF, 2,5-Dimethyl-4-(1-pyrrolidinyl)-3(2H)-furanone] gave a Cooling threshold in assay [1] of 100 to 140 mg/kg.

Consider `CC1=C(N2CCCC2)C(=O)CO1` [MPF, 5-Methyl-4-(1-pyrrolidinyl)-3(2H)-furanone], for which the Cooling threshold in assay [1] lay in the range of 1.5 to 3.0 mg/kg. Also, the “Cooling effect [mg/100 g chocolate]” value in assay [4] was 0.8-1.5 mg/100 g chocolate. Further, the “Flavor: cooling effect” value in assay [2] (400 mg/L in Vittel mineral water) was “Pronounced cooling effect”. For the same molecule, the cooling effect entry in assay [3] (1000 mg/L in orange juice) is on record as “pronounced cooling effect”. Further, the “cooling effect in the mouth” value in assay [6] (100 mg added to syrup of 100 g sugar) is listed as “pronounced cooling effect”. Moreover, the Cooling intensity in assay [5] (0.00020 % in tap water), in assay [5] (0.00039 % in tap water), in assay [5] (0.00078 % in tap water), in assay [5] (0.00156 % in tap water), in assay [5] (0.00313 % in tap water) and in assay [5] (0.00625 % in tap water) was 0 each time. The Cooling intensity in assay [5] (0.0125 % in tap water) came to 0; in assay [5] (0.025 % in tap water) it was 0; in assay [5] (0.05 % in tap water), 1; in assay [5] (0.1 % in tap water) it was 2; in assay [5] (0.2 % in tap water), 4; in assay [5] (0.5 % in tap water), 5. For the same molecule, in assay [5] (1.0 % in tap water), the Cooling intensity worked out at 5.
